Measured values reported in article PMC5390467, “Novel lead structures with both Plasmodium falciparum gametocytocidal and asexual blood stage activity identified from high throughput compound screening” (Malaria Journal, 2017).
Values joined by “and” are separate entries in the source; they are usually repeats but may differ in a detail not shown here. Equal values may be shown once.

Experiments:
[1] = test system: P. falciparum NF54 gametocytes; test: gametocyte viability assay (AlamarBlue); type: cell-based, Plasmodium falciparum
Protocol: (§1) Asexual parasites of P. falciparum strain NF54 were cultured as described previously. Briefly, parasites were maintained in RPMI 1640 medium containing 10% positive human serum + erythrocytes (5% haematocrit), 2.5% sodium bicarbonate and 11 µg/mL gentamicin at 37 °C with 5% CO2, 5% O2 and 90% N2. Gametocyte cultures were set up at 0.1% parasitaemia and on days 9–10 treated with 50 mM N-acetylglucosamine (NAG) to block further asexual growth. Stage III–V gametocytes were isolated by Percoll density gradient centrifugation on day 12 and returned to culture for 24 h before being used in the assay. At the time of the assay over 73% of the gametocytes were stage IV or V (Additional file 1). HepG2 cells (ATCC, cat. no. 77400) were cultured in 175-cm^2 tissue culture flasks with 30 ml growth medium at 37 °C in a 5% CO2 and 5% O2 humidified atmosphere. Growth medium was made with Dulbecco’s Modified Eagle Medium with 10% fetal bovine serum (FBS). Growth medium was replaced every other day and cells were passaged at 75% confluence.
Compounds from the Sytravon library (a retired Pharma screening collection that contains a diversity of novel small molecules, with an emphasis on medicinal chemistry-tractable scaffolds) were obtained as powder samples and dissolved in DMSO as […] stock solutions. Compound screening experiments were performed as previously described. In the primary screen, two concentrations for each compound were tested. No technical and biological replicates were involved. In the follow-up confirmation studies, three biological replicates were tested for each compound in both parasite assays. The positive control was 46 µM of Torin 2 and negative control was DMSO. Briefly, 2.5 μL/well incomplete medium was dispensed into each well of 1536-well plates using the Multidrop Combi followed by 23 nL compound transferring using the NX-TR Pintool (WAKO Scientific Solutions, San Diego, CA). Then, 2.5 μL/well of gametocytes was dispensed with a seeding density of 20,000 cells/well using the Multidrop Combi. The assay plates were incubated for 72 h at 37 °C with 5% CO2. After addition of 5 μL/well of 2X AlamarBlue dye (Life Technologies, cat. no. DAL1100), the plates were incubated for 24 h at 37 °C with 5% CO2 and then were read in a fluorescence detection mode (Ex = 525 nm, Em = 598 nm) on a ViewLux plate reader (PerkinElmer).

[2] = test system: HepG2 cells; test: HepG2 cytotoxicity assay (AlamarBlue); type: cell-based, human; conditions: HepG2 cells, 72 h, AlamarBlue, up to 46 µM
Protocol: as §1
Drug activity on HepG2 was tested using an AlamarBlue assay as previously described. Briefly, 5 μL/well of HepG2 cells were dispensed with a seeding density of 1000 cells/well using the Multidrop Combi. 23 nL compound was transferred using the NX-TR Pintool. After 72 h incubation under the standard culture condition, 5 μL/well of 2X AlamarBlue dye was added to the cells, the plates were incubated for 2 h at 37 °C with 5% CO2 and then were read in a fluorescence detection mode (Ex = 525 nm, Em = 598 nm) on a ViewLux plate reader.

[3] = test system: 468 human kinases; test: human kinase profiling (Kinome scan, DiscoverX), whole panel; type: binding
[4] = biological target: T1, CDK4-cyclinD3 (Homo sapiens, UniProt P11802); test: Kinome scan profile; type: binding; conditions: 10 μM
T1 construct: purchased DiscoverX (KINOMEscan)

[5] = biological target: T2, ERBB3 (Homo sapiens, UniProt P21860); test: Kinome scan profile; type: binding; conditions: 10 μM
T2 construct: purchased DiscoverX (KINOMEscan)

[6] = biological target: T3, TYK2(JH1domain-catalytic) (Homo sapiens, UniProt P29597); test: Kinome scan profile; type: binding; conditions: 10 μM
T3 construct: TYK2(JH1domain-catalytic); purchased DiscoverX (KINOMEscan)
T3 sequence (P29597 897-1176 limits assumed): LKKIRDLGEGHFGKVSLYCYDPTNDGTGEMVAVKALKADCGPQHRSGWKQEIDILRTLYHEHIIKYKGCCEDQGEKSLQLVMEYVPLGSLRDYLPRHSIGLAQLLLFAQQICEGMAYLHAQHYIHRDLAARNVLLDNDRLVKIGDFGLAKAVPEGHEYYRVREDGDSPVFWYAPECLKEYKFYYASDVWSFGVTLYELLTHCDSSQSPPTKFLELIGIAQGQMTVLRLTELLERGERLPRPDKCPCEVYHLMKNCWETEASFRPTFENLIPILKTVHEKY

[7] = biological target: T4, ALK(C1156Y) (Homo sapiens, UniProt Q9UM73, C1156Y); test: Kinome scan profile; type: binding; conditions: 10 μM
T4 construct: purchased DiscoverX (KINOMEscan)

[8] = biological target: T5, RSK2(Kin.Dom.2-C-terminal) (Homo sapiens, UniProt P51812); test: Kinome scan profile; type: binding; conditions: 10 μM
T5 construct: RSK2(Kin.Dom.2-C-terminal); purchased DiscoverX (KINOMEscan)

[9] = biological target: T6, KIT(A829P) (Homo sapiens, UniProt P10721, A829P); test: Kinome scan profile; type: binding; conditions: 10 μM
T6 construct: purchased DiscoverX (KINOMEscan)
T6 sequence (P10721 26-976 A829P): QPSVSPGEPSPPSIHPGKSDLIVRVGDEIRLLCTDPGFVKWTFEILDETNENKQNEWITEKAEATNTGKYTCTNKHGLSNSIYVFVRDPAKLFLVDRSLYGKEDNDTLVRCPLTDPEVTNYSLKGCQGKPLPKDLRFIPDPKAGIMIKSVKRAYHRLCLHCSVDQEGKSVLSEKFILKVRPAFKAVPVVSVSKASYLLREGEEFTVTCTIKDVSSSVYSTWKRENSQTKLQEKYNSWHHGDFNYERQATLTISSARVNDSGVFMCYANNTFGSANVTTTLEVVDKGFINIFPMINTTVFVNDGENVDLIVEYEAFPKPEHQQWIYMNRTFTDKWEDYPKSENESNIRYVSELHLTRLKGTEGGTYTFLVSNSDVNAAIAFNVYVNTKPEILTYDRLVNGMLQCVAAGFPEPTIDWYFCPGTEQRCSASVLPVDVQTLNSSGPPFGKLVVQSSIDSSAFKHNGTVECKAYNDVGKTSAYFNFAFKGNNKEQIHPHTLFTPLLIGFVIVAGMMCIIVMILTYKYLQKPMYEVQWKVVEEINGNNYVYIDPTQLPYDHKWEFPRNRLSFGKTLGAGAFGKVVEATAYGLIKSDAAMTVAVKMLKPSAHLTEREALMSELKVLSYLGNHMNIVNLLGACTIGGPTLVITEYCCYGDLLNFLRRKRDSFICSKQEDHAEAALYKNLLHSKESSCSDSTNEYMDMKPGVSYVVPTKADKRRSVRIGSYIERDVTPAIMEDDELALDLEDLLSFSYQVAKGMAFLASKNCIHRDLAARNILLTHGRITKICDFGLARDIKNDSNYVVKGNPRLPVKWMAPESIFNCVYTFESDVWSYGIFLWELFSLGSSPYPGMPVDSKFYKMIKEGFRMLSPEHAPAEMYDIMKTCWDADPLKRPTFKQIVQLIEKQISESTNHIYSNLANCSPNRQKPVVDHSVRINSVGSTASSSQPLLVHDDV

T2 sequence (P21860 20-1342): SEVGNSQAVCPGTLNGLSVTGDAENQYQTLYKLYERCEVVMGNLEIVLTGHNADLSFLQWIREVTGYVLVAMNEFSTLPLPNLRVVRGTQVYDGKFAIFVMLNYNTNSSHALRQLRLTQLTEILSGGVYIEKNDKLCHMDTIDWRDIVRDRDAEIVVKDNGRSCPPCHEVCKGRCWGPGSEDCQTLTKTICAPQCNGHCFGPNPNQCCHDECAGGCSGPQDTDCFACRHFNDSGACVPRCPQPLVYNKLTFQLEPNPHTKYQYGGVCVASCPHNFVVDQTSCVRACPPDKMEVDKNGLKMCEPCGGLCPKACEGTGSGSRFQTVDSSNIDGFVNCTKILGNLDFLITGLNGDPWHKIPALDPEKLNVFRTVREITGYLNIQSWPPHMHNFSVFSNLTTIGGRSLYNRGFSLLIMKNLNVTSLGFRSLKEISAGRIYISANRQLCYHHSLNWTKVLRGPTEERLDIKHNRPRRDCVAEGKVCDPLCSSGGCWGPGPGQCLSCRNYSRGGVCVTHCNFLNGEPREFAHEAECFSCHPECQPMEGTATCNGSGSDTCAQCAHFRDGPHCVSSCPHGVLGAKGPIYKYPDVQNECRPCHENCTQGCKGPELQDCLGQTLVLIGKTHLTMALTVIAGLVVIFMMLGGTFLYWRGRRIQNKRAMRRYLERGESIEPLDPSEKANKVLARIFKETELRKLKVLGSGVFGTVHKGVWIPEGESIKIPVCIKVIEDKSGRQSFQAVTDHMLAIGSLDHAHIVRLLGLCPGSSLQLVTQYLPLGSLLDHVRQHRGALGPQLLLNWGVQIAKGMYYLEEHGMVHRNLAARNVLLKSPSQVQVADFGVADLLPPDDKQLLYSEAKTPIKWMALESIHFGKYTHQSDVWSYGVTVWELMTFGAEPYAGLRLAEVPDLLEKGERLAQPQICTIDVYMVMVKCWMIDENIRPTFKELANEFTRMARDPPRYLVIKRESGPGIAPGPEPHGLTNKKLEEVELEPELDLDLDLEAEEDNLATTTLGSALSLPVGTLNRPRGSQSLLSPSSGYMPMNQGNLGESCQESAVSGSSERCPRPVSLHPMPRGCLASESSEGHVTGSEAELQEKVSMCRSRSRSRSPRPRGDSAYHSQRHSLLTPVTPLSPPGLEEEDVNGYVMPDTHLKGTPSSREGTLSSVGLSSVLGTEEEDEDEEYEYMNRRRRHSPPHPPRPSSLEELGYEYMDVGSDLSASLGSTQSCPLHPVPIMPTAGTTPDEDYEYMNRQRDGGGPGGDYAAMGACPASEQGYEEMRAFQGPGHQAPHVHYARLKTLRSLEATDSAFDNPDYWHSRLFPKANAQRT
T1 sequence (P11802 whole entry): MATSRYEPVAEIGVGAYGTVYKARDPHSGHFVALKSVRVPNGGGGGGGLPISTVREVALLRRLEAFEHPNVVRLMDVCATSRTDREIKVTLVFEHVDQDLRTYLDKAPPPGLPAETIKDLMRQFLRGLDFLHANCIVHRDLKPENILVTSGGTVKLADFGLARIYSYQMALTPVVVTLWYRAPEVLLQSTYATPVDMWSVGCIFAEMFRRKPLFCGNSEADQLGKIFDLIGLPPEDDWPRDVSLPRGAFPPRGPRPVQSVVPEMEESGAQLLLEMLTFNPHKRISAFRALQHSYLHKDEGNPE
T1 sequence (P30281 whole entry partner): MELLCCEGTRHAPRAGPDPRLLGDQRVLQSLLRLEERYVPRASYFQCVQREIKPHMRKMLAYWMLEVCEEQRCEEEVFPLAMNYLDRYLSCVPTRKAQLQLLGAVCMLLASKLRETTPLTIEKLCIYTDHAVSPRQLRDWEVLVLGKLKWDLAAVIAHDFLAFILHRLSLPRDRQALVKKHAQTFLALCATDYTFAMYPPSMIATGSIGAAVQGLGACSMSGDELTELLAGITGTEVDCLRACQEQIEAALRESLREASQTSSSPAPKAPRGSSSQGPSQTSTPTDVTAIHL
T5 sequence (P51812 422-679 limits assumed): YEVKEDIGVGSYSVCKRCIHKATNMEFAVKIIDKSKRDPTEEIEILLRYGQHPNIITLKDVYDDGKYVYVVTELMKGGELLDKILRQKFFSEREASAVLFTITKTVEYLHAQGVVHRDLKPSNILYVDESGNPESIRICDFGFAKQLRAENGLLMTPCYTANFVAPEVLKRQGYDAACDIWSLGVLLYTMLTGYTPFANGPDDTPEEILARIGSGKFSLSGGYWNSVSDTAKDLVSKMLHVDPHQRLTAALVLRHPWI
T4 sequence (Q9UM73 19-1620 C1156Y): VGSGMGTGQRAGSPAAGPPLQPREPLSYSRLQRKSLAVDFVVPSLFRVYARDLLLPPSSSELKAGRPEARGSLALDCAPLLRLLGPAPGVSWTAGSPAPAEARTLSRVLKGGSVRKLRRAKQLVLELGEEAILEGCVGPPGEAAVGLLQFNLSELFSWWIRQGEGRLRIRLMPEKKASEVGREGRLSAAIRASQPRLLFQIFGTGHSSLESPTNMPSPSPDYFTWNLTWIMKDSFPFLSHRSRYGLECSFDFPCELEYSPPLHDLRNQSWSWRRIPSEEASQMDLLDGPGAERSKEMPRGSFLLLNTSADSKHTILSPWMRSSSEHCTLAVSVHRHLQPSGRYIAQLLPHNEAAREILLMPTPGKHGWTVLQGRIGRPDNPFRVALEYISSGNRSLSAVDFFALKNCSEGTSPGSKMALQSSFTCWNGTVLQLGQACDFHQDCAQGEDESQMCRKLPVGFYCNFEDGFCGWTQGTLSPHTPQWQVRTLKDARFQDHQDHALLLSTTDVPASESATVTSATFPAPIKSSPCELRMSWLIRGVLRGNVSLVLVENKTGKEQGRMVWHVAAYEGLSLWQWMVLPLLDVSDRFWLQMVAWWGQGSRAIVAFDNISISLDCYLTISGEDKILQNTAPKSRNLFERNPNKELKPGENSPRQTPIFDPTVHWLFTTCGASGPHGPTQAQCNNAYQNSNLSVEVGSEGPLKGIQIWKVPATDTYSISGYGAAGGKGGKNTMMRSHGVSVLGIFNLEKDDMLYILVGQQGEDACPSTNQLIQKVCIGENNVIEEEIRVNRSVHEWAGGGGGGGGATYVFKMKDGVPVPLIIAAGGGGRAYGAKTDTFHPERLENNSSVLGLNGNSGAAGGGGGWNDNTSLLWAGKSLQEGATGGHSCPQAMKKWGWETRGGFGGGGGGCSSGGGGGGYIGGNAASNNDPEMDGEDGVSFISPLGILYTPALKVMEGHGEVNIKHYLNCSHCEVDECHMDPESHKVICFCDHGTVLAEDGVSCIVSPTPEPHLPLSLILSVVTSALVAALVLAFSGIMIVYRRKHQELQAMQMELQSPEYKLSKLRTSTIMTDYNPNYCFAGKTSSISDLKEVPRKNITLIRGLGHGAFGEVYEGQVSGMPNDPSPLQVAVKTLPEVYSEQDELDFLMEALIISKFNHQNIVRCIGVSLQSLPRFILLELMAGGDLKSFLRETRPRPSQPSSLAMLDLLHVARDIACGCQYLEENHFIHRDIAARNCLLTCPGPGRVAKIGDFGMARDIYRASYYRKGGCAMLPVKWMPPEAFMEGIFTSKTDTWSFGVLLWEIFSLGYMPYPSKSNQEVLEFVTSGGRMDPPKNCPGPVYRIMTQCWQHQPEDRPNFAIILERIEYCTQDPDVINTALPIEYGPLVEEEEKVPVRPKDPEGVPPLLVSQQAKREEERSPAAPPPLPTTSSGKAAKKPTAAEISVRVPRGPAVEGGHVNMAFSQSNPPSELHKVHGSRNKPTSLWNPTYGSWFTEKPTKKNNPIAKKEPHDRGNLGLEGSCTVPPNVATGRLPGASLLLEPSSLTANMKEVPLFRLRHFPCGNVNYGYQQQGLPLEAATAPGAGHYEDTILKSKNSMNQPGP

SMILES: CCN1CCN(Cc2c(O)ccc3c(=O)c(Oc4ccccc4C(C)C)c(C(F)(F)F)oc23)CC1 [NCGC00100599]
- IC50 ([1]; P. falciparum NF54 stage III-V gametocytes, 72 h, AlamarBlue, mean ± SD, n = 3): 4.18 µM and 4.34 µM
- Asexual/Gametocyte ([1]; ratio of asexual IC50 to gametocyte IC50): 0.08
- HepG2, IC50 (dash = less than 25% cytotoxicity) [2]: – (Indicates compounds with less than 25% cytotoxicity at up to 46 µM)
- number of human kinases interacting (Interactions Mapped, 468 Assays Tested) ([3]; 10 μM): 16
- S-Score(35) ([3]; 10 µM, 468 assays): 0.03
- % Control, CDK4-cyclinD3 [4]: 15 % Control
- % Control, ERBB3 [5]: 17 % Control
- % Control, TYK2(JH1domain-catalytic) [6]: 19 % Control
- % Control, ALK(C1156Y) [7]: 28 % Control
- % Control, RSK2(Kin.Dom.2-C-terminal) [8]: 29 % Control
- % Control, KIT(A829P) [9]: 34 % Control
